Here are results for 18 compounds from ChEMBL document CHEMBL1143484, “Discovery of 1-amino-4-phenylcyclohexane-1-carboxylic acid and its influence on agonist selectivity between human melanocortin-4 and -1 receptors in linear pentapeptides” (Bioorg Med Chem Lett, 2005).

The target in test [1] is T1, Melanocyte-stimulating hormone receptor (Homo sapiens, UniProt Q01726). Kind of test: Concentration (50 uM) required for cAMP accumulation mediated by human Melanocortin 1 receptor in HEK293 cells. The format is functional, cell-based.
Target sequence in this assay (Q01726 whole entry, looked up): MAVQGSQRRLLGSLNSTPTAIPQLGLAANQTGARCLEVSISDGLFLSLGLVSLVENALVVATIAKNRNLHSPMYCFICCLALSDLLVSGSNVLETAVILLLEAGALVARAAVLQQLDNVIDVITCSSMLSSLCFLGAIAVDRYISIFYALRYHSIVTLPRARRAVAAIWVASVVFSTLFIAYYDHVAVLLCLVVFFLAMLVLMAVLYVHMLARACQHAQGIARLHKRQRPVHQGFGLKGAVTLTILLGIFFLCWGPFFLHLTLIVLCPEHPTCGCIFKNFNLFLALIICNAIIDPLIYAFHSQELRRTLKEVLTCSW
The target in test [2] is Melanocortin receptor 3 (Homo sapiens) (UniProt P41968). Kind of test: Concentration (50 uM) required for cAMP accumulation mediated by human Melanocortin 3 receptor in HEK293 cells. The format is functional, cell-based. (Changes in cAMP serve as a functional read-out for many G protein-coupled receptors.)
Sequence of Melanocortin receptor 3 (Homo sapiens) (P41968 whole entry): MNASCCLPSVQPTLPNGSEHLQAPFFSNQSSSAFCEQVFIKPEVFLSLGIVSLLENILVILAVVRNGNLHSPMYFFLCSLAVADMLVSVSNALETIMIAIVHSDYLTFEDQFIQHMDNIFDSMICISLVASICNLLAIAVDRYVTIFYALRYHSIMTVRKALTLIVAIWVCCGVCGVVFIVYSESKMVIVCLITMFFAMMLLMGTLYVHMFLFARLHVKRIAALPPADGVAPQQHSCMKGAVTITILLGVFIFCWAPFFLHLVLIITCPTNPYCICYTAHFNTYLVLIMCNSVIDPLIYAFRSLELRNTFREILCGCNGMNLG
The target of test [3] is Melanocortin receptor 5 (Homo sapiens) (UniProt P33032). Description: Concentration (50 uM) required for cAMP accumulation mediated by human Melanocortin 5 receptor in HEK293 cells. The class given is functional, cell-based.
Sequence of Melanocortin receptor 5 (Homo sapiens) (P33032 whole entry): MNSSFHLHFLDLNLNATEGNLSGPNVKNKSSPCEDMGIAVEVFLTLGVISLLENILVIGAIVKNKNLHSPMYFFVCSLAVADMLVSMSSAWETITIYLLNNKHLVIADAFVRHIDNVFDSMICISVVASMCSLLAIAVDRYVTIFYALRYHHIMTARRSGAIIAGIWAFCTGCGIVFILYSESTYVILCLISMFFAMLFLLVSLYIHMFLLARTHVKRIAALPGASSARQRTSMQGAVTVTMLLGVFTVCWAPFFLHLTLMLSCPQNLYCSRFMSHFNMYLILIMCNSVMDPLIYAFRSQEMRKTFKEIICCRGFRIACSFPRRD
Test [4] deals with T1, Melanocyte-stimulating hormone receptor. Kind of test: Binding affinity towards human Melanocortin 1 receptor using radiolabeled NDP-MSH displacement.
Target sequence in this assay (Q01726 whole entry): as the sequence (Q01726 whole entry, looked up) above
In test [5] the target is T2, Melanocortin receptor 4 (Homo sapiens, UniProt P32245). Kind of test: Binding affinity towards human Melanocortin 4 receptor using radiolabeled NDP-MSH displacement.
T2 sequence (P32245 whole entry): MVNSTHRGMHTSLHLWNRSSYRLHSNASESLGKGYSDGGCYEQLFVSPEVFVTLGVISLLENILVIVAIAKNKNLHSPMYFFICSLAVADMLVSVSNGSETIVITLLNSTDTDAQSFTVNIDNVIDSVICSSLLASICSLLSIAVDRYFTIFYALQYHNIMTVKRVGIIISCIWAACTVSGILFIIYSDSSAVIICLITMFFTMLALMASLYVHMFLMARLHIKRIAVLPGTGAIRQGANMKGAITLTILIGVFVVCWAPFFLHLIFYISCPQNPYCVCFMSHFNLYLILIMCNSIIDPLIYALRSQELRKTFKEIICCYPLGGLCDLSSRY
The target of test [6] is T2, Melanocortin receptor 4. Kind of test: Effective concentration for cAMP accumulation mediated by human Melanocortin 4 receptor in HEK293 cells. The format is functional, cell-based.
Test [7] concerns the target T1, Melanocyte-stimulating hormone receptor. Kind of test: Effective concentration required for cAMP accumulation mediated by human Melanocortin 1 receptor in HEK293 cells. The format is functional, cell-based.
Target sequence in this assay (Q01726 whole entry): as the sequence (Q01726 whole entry, looked up) above
In test [8] the target is T2, Melanocortin receptor 4. Description: Concentration (50 uM) required for cAMP accumulation mediated by human Melanocortin 4 receptor in HEK293 cells. The class given is functional, cell-based.

Non-standard residues stand in square brackets, D forms with d. Residues, ends and D or L forms follow the SMILES beside them. *: point of attachment. Butyryl = CCCC(=O)*

In turn, `CCCCC(=O)N[C@]1(C(=O)N[C@H](Cc2ccccc2)C(=O)N[C@@H](CCCN=C(N)N)C(=O)N[C@@H](Cc2c[nH]c3ccccc23)C(=O)NCC(N)=O)CC[C@H](c2ccc(OCC)cc2)CC1` registered a cAMP accumulation at 50 uM in test [1] of 0%. Moreover, the Accumulation in test [2] amounted to 28%; in test [3] it was 46%.
`CCCCC(=O)N[C@]1(C(=O)N[C@H](Cc2ccccc2)C(=O)N[C@@H](CCCN=C(N)N)C(=O)N[C@@H](Cc2c[nH]c3ccccc23)C(=O)NCC(N)=O)CC[C@H](c2ccc(OC(C)C)cc2)CC1` came in with a cAMP accumulation at 50 uM in test [1] of 60%.
With `CCCCC(=O)N[C@]1(C(=O)N[C@H](Cc2ccccc2)C(=O)N[C@@H](CCCNC(=N)N)C(=O)N[C@@H](Cc2c[nH]c3ccccc23)C(=O)NCC(N)=O)CC[C@H](c2ccc(OCC)cc2)CC1`, the IC50 in test [4] amounted to 4700 nM; on Melanocortin receptor 4 [5], 43 nM. In addition, it took 13 nM to reach a half-maximal effect on Melanocortin receptor 4 [6] (EC50).
Take `CCCCC(=O)N[C@]1(C(=O)N[C@H](Cc2ccccc2)C(=O)N[C@@H](CCCNC(=N)N)C(=O)N[C@@H](Cc2c[nH]c3ccccc23)C(=O)NCC(N)=O)CC[C@H](c2ccc(O)cc2)CC1`: the EC50 in test [7] was 1300 nM; on Melanocortin receptor 4 [6] it was 5 nM.
On the same counts, the results for `CCCCC(=O)N[C@]1(C(=O)N[C@H](Cc2ccccc2)C(=O)N[C@@H](CCCNC(=N)N)C(=O)N[C@@H](Cc2c[nH]c3ccccc23)C(=O)NCC(N)=O)CC[C@H](c2cccc(OC)c2)CC1` are 690 nM and 2 nM.
With `CCCCC(=O)N[C@]1(C(=O)N[C@H](Cc2ccccc2)C(=O)N[C@@H](CCCNC(=N)N)C(=O)N[C@@H](Cc2c[nH]c3ccccc23)C(N)=O)CC[C@H](c2ccccc2)CC1`, the EC50 in test [7] was determined as 1300 nM; at Melanocortin receptor 4 [6] it was 130 nM.
As to `CCCC(=O)N[C@@H](Cc1c[nH]cn1)C(=O)N[C@H](Cc1ccccc1)C(=O)N[C@@H](CCCN=C(N)N)C(=O)N[C@@H](Cc1c[nH]c2ccccc12)C(=O)NCC(N)=O` (Butyryl-H[dF]RWG-NH2), the Accumulation in test [2] and in test [3] was 0% throughout.
In test [1], `CCCCC(=O)N[C@]1(C(=O)N[C@H](Cc2ccccc2)C(=O)N[C@@H](CCCN=C(N)N)C(=O)N[C@@H](Cc2c[nH]c3ccccc23)C(=O)NCC(N)=O)CC[C@H](c2ccc(Cl)cc2)CC1` had a cAMP accumulation at 50 uM of 45%.
In turn, `CCCCC(=O)N[C@]1(C(=O)N[C@H](Cc2ccccc2)C(=O)N[C@@H](CCCN=C(N)N)C(=O)N[C@@H](Cc2c[nH]c3ccccc23)C(=O)NCC(N)=O)CC[C@H](c2cc(CCC)cc(CCC)c2)CC1` yielded an Accumulation on Melanocortin receptor 4 [8] of 60%. In test [7], this compound gave a half-maximal effective concentration (EC50) of 210 nM.
With `CCCCC(=O)N[C@]1(C(=O)NC(Cc2ccccc2)C(=O)NC(CCCN=C(N)N)C(=O)N[C@@H](Cc2c[nH]c3ccccc23)C(=O)NCC(N)=O)CC[C@@H](c2ccccc2)CC1` (single isomer, unassigned), the figures for the EC50 (in test [7]; at Melanocortin receptor 4 [6]) were 1300 nM and 88 nM, respectively.
For the compound `CCCCC(=O)N[C@]1(C(=O)N[C@H](Cc2ccccc2)C(=O)N[C@@H](CCCNC(=N)N)C(=O)N[C@@H](Cc2c[nH]c3ccccc23)C(=O)NCC(N)=O)CC[C@H](c2ccccc2)CC1`, the IC50 is 7100 nM in test [4] and 13 nM at Melanocortin receptor 4 [5]. For the same compound, on Melanocortin receptor 4 [6], a half-maximal response (EC50) required 2 nM.
For the compound `CCCCC(=O)N[C@]1(C(=O)N[C@H](Cc2ccccc2)C(=O)N[C@@H](CCCNC(=N)N)C(=O)N[C@@H](Cc2c[nH]c3ccccc23)C(=O)NCC(N)=O)CC[C@H](c2ccc(Cl)cc2)CC1`, at Melanocortin receptor 4 [6], a half-maximal response (EC50) required 4 nM.
Turning to `CCCCC(=O)N[C@]1(C(=O)N[C@H](Cc2ccccc2)C(=O)N[C@@H](CCCN=C(N)N)C(=O)N[C@@H](Cc2c[nH]c3ccccc23)C(=O)NCC(N)=O)CC[C@H](c2ccccc2)CC1`, the cAMP accumulation at 50 uM in test [1] came out at 25%. The results for the Accumulation in test [2] and in test [3] were 57% and 36%, respectively.
Compound `CCCCC(=O)N[C@]1(C(=O)NC(Cc2ccccc2)C(=O)NC(CCCN=C(N)N)C(=O)N[C@@H](Cc2c[nH]c3ccccc23)C(=O)NCC(N)=O)CC[C@H](c2ccc(OC)cc2)CC1` (single isomer, unassigned) came in with a cAMP accumulation at 50 uM in test [1] of 0%. Also, a half-maximal effect at Melanocortin receptor 4 [6] (EC50) was put at 9 nM.
Take `CCCCC(=O)N[C@@]1(C(=O)N[C@H](Cc2ccccc2)C(=O)N[C@@H](CCCN=C(N)N)C(=O)N[C@@H](Cc2c[nH]c3ccccc23)C(=O)NCC(N)=O)CCc2ccccc2C1`: the EC50 in test [7] turned out to be 830 nM; on Melanocortin receptor 4 [6], 45 nM.
As to `NC(=O)CNC(=O)[C@H](Cc1c[nH]c2ccccc12)NC(=O)[C@H](CCCN=C(N)N)NC(=O)[C@@H](Cc1ccccc1)NC(=O)[C@H]1CC[C@H](c2ccccc2)CC1`, the cAMP accumulation at 50 uM in test [1] stood at 60%. The same compound returned an EC50 on Melanocortin receptor 4 [6] of 550 nM.
In test [1], `CCCCC(=O)N[C@]1(C(=O)NC(Cc2ccccc2)C(=O)NC(CCCN=C(N)N)C(=O)N[C@@H](Cc2c[nH]c3ccccc23)C(=O)NCC(N)=O)CC[C@H](c2ccc(C)cc2)CC1` (single isomer, unassigned) had a cAMP accumulation at 50 uM of 55%. At Melanocortin receptor 4 [6], this compound yielded a half-maximal effective concentration (EC50) of 3 nM.
At Melanocortin receptor 4 [6], `CCCCC(=O)N[C@]1(C(=O)N[C@H](Cc2ccccc2)C(=O)N[C@@H](CCCNC(=N)N)C(=O)N[C@@H](Cc2c[nH]c3ccccc23)C(=O)NCC(N)=O)CC[C@H](c2ccc(OC(C)C)cc2)CC1` came in with an EC50 of 6 nM.

A word on the IC50: it is the point on the concentration scale where inhibition reaches its midpoint. Broadly, the EC50 is the midpoint of the concentration-response curve.
